The numbers were not newly measured in patent US20160089381A1, “STABILITY OF PROGESTOGEN FORMULATIONS” (Novo Nordisk HealthCare AG, priority 2003, published 2016), which cites them from elsewhere.

Structures are written as SMILES.

This series relates to endometrium. The note with it: dose equivalent to 1 mg NETA.

As to `CC(=O)O[C@]1(C(C)=O)CC[C@H]2[C@@H]3C=C(Cl)C4=CC(=O)[C@@H]5C[C@@H]5[C@]4(C)[C@H]3CC[C@@]21C` [cyproterone acetate], the Endometrium transformation dosage was 1 mg.

As to `CC(=O)O[C@]1(C(C)=O)CC[C@H]2[C@@H]3C[C@H](C)C4=CC(=O)CC[C@]4(C)[C@H]3CC[C@@]21C` [medroxyprogestogen acetate], the Endometrium transformation dosage was 5 mg.
